In US8207172B2 (Bayer Intellectual Property GmbH, priority 2004, dated 2012):
Structures can show the parent of a compound that is named as a salt.

Key:
[1] = tested on: A431 cells (human epidermoid carcinoma); test: In vitro tumor cell proliferation assay (Cell Titer-Glo luminescent cell viability), A431; assay type: cell-based; conditions: A-431, 72 h, 72 hours of drug exposure, ATP luminescence readout, read-out: IC50, anti-proliferative activity (inhibition of cell proliferation)
Method in brief: (§1)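 A431 or BT474 cells were exposed 72 h at 37°C to serially diluted compounds (final 100 μM down to 64 pM, 0.1% DMSO). Viable cells were read by ATP luminescence (CellTiter-Glo) and IC50 values derived.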

[2] = tested on: BT474 (human breast carcinoma); test: In vitro tumor cell proliferation assay (Cell Titer-Glo luminescent cell viability), BT474; assay type: cell-based; conditions: BT-474, 72 h, BT474 cells, 72 hours of drug exposure, ATP luminescence readout, read-out: IC50, anti-proliferative activity (inhibition of cell proliferation)
Method in brief: as §1

Row | SMILES | IC50 [1] [µM] | IC50 [2] [µM]
1 | O[C@H](CN1CCNCC1)Cn1cc2c(n1)CCc1c-2sc2ncnc(Nc3ccc(OCc4cccc(F)c4)c(Cl)c3)c12 [Example 152, (2R)-1-[6-({3-chloro-4-[(3-fluorobenzyl)oxy]phenyl}amino)-4,5-dihydro-2H-pyrimido[5′,4′:4,5]thieno[2,3-e]indazol-2-yl]-3-piperazin-1-ylpropan-2-ol trifluoroacetate (salt)] | ≤ 50 | ≤ 1
2 | CN1CCN(CCn2cc3c(n2)CCc2c-3sc3ncnc(Nc4ccc(OCc5cccc(Cl)c5)c(Cl)c4)c23)CC1 [Example 333, N-{3-chloro-4-[(3-chlorobenzyl)oxy]phenyl}-2-[2-(4-methylpiperazin-1-yl)ethyl]-4,5-dihydro-2H-pyrimido[5′,4′:4,5]thieno[2,3-e]indazol-6-amine] | ≤ 5 | ≤ 1
3 | OCC(O)CN1CCC(CCn2cc3c(n2)CCc2c-3sc3ncnc(Nc4ccc(OCc5cccc(F)c5)c(Cl)c4)c23)CC1 (stereo not drawn) [Example 257, 3-(4-{2-[6-({3-chloro-4-[(3-fluorobenzyl)oxy]phenyl}amino)-4,5-dihydro-2H-pyrimido[5′,4′:4,5]thieno[2,3-e]indazol-2-yl]ethyl}piperidin-1-yl)propane-1,2-diol] | ≤ 5 | ≤ 1
4 | CCc1nccn1CCn1cc2c(n1)CCc1c-2sc2ncnc(Nc3ccc(F)c(Cl)c3)c12 [Example 38, N-(3-chloro-4-fluorophenyl)-2-[2-(2-ethyl-1H-imidazol-1-yl)ethyl]-4,5-dihydro-2H-pyrimido[5′,4′:4,5]thieno[2,3-e]indazol-6-amine] | ≤ 5 | ≤ 5
5 | CN1CCN(CCn2cc3c(n2)CCc2c-3sc3ncnc(Nc4ccc(O)c(Cl)c4)c23)CC1 [Example 46, 2-chloro-4-({2-[2-(4-methylpiperazin-1-yl)ethyl]-4,5-dihydro-2H-pyrimido[5′,4′:4,5]thieno[2,3-e]indazol-6-yl}amino)phenol] | ≤ 50 | ≤ 5
6 | COCCN1CCN(C[C@@H](O)Cn2cc3c(n2)CCc2c-3sc3ncnc(Nc4ccc(OCc5cccc(F)c5)c(Cl)c4)c23)CC1 [Example 133, (2R)-1-[6-({3-chloro-4-[(3-fluorobenzyl)oxy]phenyl}amino)-4,5-dihydro-2H-pyrimido[5′,4′:4,5]thieno[2,3-e]indazol-2-yl]-3-[4-(2-methoxyethyl)piperazin-1-yl]propan-2-ol] | ≤ 50 | ≤ 1
7 | COCCN(C)CCn1cc2c(n1)CCc1c-2sc2ncnc(Nc3ccc(OCc4cccc(F)c4)c(Cl)c3)c12 [Example 69, N-{3-chloro-4-[(3-fluorobenzyl)oxy]phenyl}-2-{2-[(2-methoxyethyl)(methyl)amino]ethyl}-4,5-dihydro-2H-pyrimido[5′,4′:4,5]thieno[2,3-e]indazol-6-amine] | ≤ 5 | ≤ 1
8 | COCCN1CCN(C(=O)Cn2cc3c(n2)CCc2c-3sc3ncnc(Nc4ccc(OCc5cccc(F)c5)c(Cl)c4)c23)CC1 [Example 186, N-{3-chloro-4-[(3-fluorobenzyl)oxy]phenyl}-2-{2-[4-(2-methoxyethyl)piperazin-1-yl]-2-oxoethyl}-4,5-dihydro-2H-pyrimido[5′,4′:4,5]thieno[2,3-e]indazol-6-amine] | ≤ 5 | ≤ 1
9 | CN(C)[C@H]1CCN(CC(=O)N2CCC(n3cc4c(n3)CCc3c-4sc4ncnc(Nc5ccc(OCc6cccc(F)c6)c(Cl)c5)c34)CC2)C1 [Example 223, N-{3-chloro-4-[(3-fluorobenzyl)oxy)phenyl}-2-(1-{[(3S)-3-(dimethylamino)pyrrolidin-1-yl]acetyl}piperidin-4-yl)-4,5-dihydro-2H-pyrimido[5′,4′:4,5]thieno[2,3-e]indazol-6-amine] | ≤ 5 | ≤ 1
10 | CN1CCN(CCn2cc3c(n2)CCc2c-3sc3ncnc(Nc4ccc(Oc5cccnc5)cc4)c23)CC1 [Example 340, 2-[2-(4-methylpiperazin-1-yl)ethyl]-N-[4-(pyridin-3-yloxy)phenyl]-4,5-dihydro-2H-pyrimido[5′,4′:4,5]thieno[2,3-e]indazol-6-amine] | ≤ 50 | ≤ 5
11 | CN1CCN(CCn2cc3c(n2)CCc2c-3sc3ncnc(Nc4ccc(F)c(Cl)c4)c23)CC1 [Example 8, N-(3-chloro-4-fluorophenyl)-2-[2-(4-methylpiperazin-1-yl)ethyl]-4,5-dihydro-2H-pyrimido[5′,4′:4,5]thieno[2,3-e]indazol-6-amine] | ≤ 5 | ≤ 1
12 | COCCN1CCN(CCn2cc3c(n2)CCc2c-3sc3ncnc(Nc4ccc(OCc5cccc(F)c5)c(Cl)c4)c23)CC1 [Example 122, N-{3-chloro-4-[(3-fluorobenzyl)oxy]phenyl}-2-{2-[4-(2-methoxyethyl)piperazin-1-yl]ethyl}-4,5-dihydro-2H-pyrimido[5′,4′:4,5]thieno[2,3-e]indazol-6-amine] | ≤ 5 | ≤ 1
13 | NC[C@@H](O)Cn1cc2c(n1)CCc1c-2sc2ncnc(Nc3ccc(OCc4cccc(F)c4)c(Cl)c3)c12 [Example 160, (2R)-1-amino-3-[6-({3-chloro-4-[(3-fluorobenzyl)oxy]phenyl}amino)-4,5-dihydro-2H-pyrimido[5′,4′:4,5]thieno[2,3-e]indazol-2-yl]propan-2-ol trifluoroacetate (salt)] | ≤ 50 | ≤ 5
14 | CCC(CC)CN1CCC(CCn2cc3c(n2)CCc2c-3sc3ncnc(Nc4ccc(OCc5cccc(F)c5)c(Cl)c4)c23)CC1 [Example 250, N-{3-chloro-4-[(3-fluorobenzyl)oxy]phenyl}-2-{2-[1-(2-ethylbutyl)piperidin-4-yl]ethyl}-4,5-dihydro-2H-pyrimido[5′,4′:4,5]thieno[2,3-e]indazol-6-amine] | ≤ 5 | ≤ 1
15 | CC(C)(C)OC(=O)N1CCC(Cn2cc3c(n2)CCc2c-3sc3ncnc(Nc4ccc(OCc5cccc(F)c5)c(Cl)c4)c23)CC1 [Example 231, tert-butyl 4-{[6-({3-chloro-4-[(3-fluorobenzyl)oxy]phenyl}amino)-4,5-dihydro-2H-pyrimido[5′,4′:4,5]thieno[2,3-e]indazol-2-yl]methyl}piperidine-1-carboxylate] | ≤ 50 | ≤ 5
16 | CCN(CC)CC(=O)N1CCC(n2cc3c(n2)CCc2c-3sc3ncnc(Nc4ccc(OCc5cccc(F)c5)c(Cl)c4)c23)CC1 [Example 220, N-{3-chloro-4-[(3-fluorobenzyl)oxy]phenyl}-2-{1-[(diethylamino)acetyl]piperidin-4-yl}-4,5-dihydro-2H-pyrimido[5′,4′:4,5]thieno[2,3-e]indazol-6-amine] | ≤ 5 | ≤ 1
17 | OC[C@H](O)Cn1cc2c(n1)CCc1c-2sc2ncnc(Nc3ccc(OCc4cccc(F)c4)c(Cl)c3)c12 [Example 76, (R)-3-{6-[3-Chloro-4-(3-fluoro-benzyloxy)-phenylamino]-4,5-dihydro-10-thia-2,3,7,9-tetraaza-cyclopenta[a]fluoren-2-yl}-propane-1,2-diol] | ≤ 5 | ≤ 1
18 | COCCN(CCOC)C[C@@H](O)Cn1cc2c(n1)CCc1c-2sc2ncnc(Nc3ccc(OCc4cccc(F)c4)c(Cl)c3)c12 [Example 138, (2R)-1-[bis(2-methoxyethyl)amino]-3-[6-({3-chloro-4-[(3-fluorobenzyl)oxy]phenyl}amino)-4,5-dihydro-2H-pyrimido[5′,4′:4,5]thieno[2,3-e]indazol-2-yl]propan-2-ol] | ≤ 50 | ≤ 1
19 | Fc1cccc(Cn2ncc3cc(Nc4ncnc5sc6c(c45)CCc4n[nH]cc4-6)ccc32)c1 [Example 288, N-[1-(3-fluorobenzyl)-1H-indazol-5-yl]-4,5-dihydro-2H-pyrimido[5′,4′:4,5]thieno[2,3-e]indazol-6-amine] | ≤ 5 | ≤ 1
20 | Fc1cccc(COc2ccc(Nc3ncnc4sc5c(c34)CCc3c-5cnn3CCNCCN3CCOCC3)cc2Cl)c1 [Example 259, N-{3-chloro-4-[(3-fluorobenzyl)oxy]phenyl}-3-{2-[(2-morpholin-4-ylethyl)amino]ethyl}-4,5-dihydro-3H-pyrimido[5′,4′:4,5]thieno[2,3-e]indazol-6-amine] | ≤ 50 | ≤ 5
21 | CN(C)[C@@H]1CCN(CC(=O)N2CCC(n3cc4c(n3)CCc3c-4sc4ncnc(Nc5ccc(OCc6cccc(F)c6)c(Cl)c5)c34)CC2)C1 [Example 219, N-{3-chloro-4-[(3-fluorobenzyl)oxy]phenyl}-2-(1-{[(3R)-3-(dimethylamino)pyrrolidin-1-yl]acetyl}piperidin-4-yl)-4,5-dihydro-2H-pyrimido[5′,4′:4,5]thieno[2,3-e]indazol-6-amine] | ≤ 5 | ≤ 1
22 | COCCN1CCN(CCn2cc3c(n2)CCc2c-3sc3ncnc(Nc4ccc(F)c(Cl)c4)c23)CC1 [Example 25, N-(3-chloro-4-fluorophenyl)-2-{2-[4-(2-methoxyethyl)piperazin-1-yl]ethyl}-4,5-dihydro-2H-pyrimido[5′,4′:4,5]thieno[2,3-e]indazol-6-amine] | ≤ 5 | ≤ 5
23 | CC(C)(C)[Si](C)(C)OCCn1cc2c(n1)CCc1c-2sc2ncnc(Nc3ccc(OCc4cccc(F)c4)c(Cl)c3)c12 [Example 55, 2-(2-{[tert-butyl(dimethyl)silyl]oxy}ethyl)N-{3-chloro-4-[(3-fluorobenzyl)oxy]phenyl}-4,5-dihydro-2H-pyrimido[5′,4′:4,5]thieno[2,3-e]indazol-6-amine] | ≤ 50 | ≤ 5
24 | O=C(Cn1cc2c(n1)CCc1c-2sc2ncnc(Nc3ccc(OCc4cccc(F)c4)c(Cl)c3)c12)N1CCOCC1 [Example 179, N-{3-chloro-4-[(3-fluorobenzyl)oxy]phenyl}-2-(2-morpholin-4-yl-2-oxoethyl)-4,5-dihydro-2H-pyrimido[5′,4′:4,5]thieno[2,3-e]indazol-6-amine] | ≤ 5 | ≤ 1
